Assays:
[1] = system: a-type yeast cell; experiment: GFP expression of yeast cells arrayed in shallow rectangular microwells, cell solution pre-treated with α-factor (Embodiment 1); format: cell-based, Saccharomyces cerevisiae; conditions: FIG. 14
Description: (§1) For example, to obtain information with regard to a mating of the yeast cell, a pheromone, e.g., so-called α-factor, may be injected into the fluidic channel as the analysis reagent. If an a-type yeast cell is used as the cell, it is preferable that a pheromone of which a sequence is TRP-HIS-TRP-LEU-GLN-LEU-LYS-PRO-GLY-GLN-PRO-MET-TYR, is used as α-factor. In a subsequent operation, when analyzing responses, it is possible to obtain information with regard to whether or not a protein related to the mating is created in a corresponding cell, and the amount of the protein.
(§2) For instance, in the case where the yeast cell is treated with α-factor, it is possible to observe whether or not a protein related to the mating is created and the amount of the protein through the expression intensity of a green fluorescent protein (GFP) with a time. Moreover, in the case where the yeast cell is treated with KCl, it is possible to find out the creation amount of corresponding proteins through a red fluorescent protein (RFP), and also analyze the response of the corresponding yeast cell upon the external stress.
A mixed solution in which a-type yeast cell solution using yeast extract peptone dextrose (YPD) medium had been pre-treated with α-factor, e.g., pheromone having a sequence of TRP-HIS-TRP-LEU-GLN-LEU-LYS-PRO-GLY-GLN-PRO-MET-TYR, was introduced into a fluidic channel through an inlet. The introduced mixed solution filled the fluidic channel through a capillary flow.
After that, the inlet was sealed with a tape so that the mixed solution was evaporated through an outlet. Accordingly, a receding meniscus was generated, allowing the cells to be arrayed in the well structures at a single-cell level. At this time, it took about 10 minutes for the cells to be arrayed while the meniscus was receding.
FIG. 14 is a micrograph showing GFP expression of a yeast cell with respect to α-factor according as a time elapses using the fluidic channel. […]

[2] = system: a-type yeast cell; experiment: GFP expression of yeast cells arrayed in deep rectangular microwells, α-factor introduced after arraying and cleaning (Embodiment 2); format: cell-based, Saccharomyces cerevisiae; conditions: FIG. 15
Description: as §1, §2
An a-type yeast cell solution using YPD medium was introduced into a fluidic channel. The introduced cell solution was filled into the fluidic channel through a capillary flow. After that, the inlet was sealed with a tape so that the cell solution was evaporated through an outlet. Accordingly, a receding meniscus was generated, thereby allowing the cells to be arrayed in the well structures at a single-cell level.
Afterwards, a cleaning solution containing amino acid, nitrogen, glucose, etc was introduced through the capillary flow caused by a surface tension, residual cells remaining at a side of the inlet were cleaned. At this time, a tissue paper was placed in the outlet to absorb and remove the residual cells and the cleaning solution.
After the residual cells are completely cleaned, […] was also introduced into the microfluidic channel by the capillary flow caused by the surface tension. […]

[3] = 30 minutes after α-factor treatment
[4] = 60 minutes after α-factor treatment
[5] = 120 minutes after α-factor treatment (versus 60 minutes)

For “TRP-HIS-TRP-LEU-GLN-LEU-LYS-PRO-GLY-GLN-PRO-MET-TYR (WHWLQLKPGQPMY; printed: TRP-HIS-TRP-LEU-GLN-LEU-LYS-PRO-GLY-GLN-PRO-MET-TYR) [α-factor, pheromone used as analysis reagent for mating response of a-type yeast cell]”, the GFP expression [1, 3] was “cannot be observed yet”, the GFP expression [1, 4] was “observed to be bright” and the GFP expression intensity [1, 5] was “does not vary”. The GFP expression [2, 3] was “cannot be observed yet”, the GFP expression [2, 4] was “observed to be bright” and the GFP expression intensity [2, 5] was “does not vary”.
